Experimental findings from US20190151241A1, “STABLE PHARMACEUTICAL INJECTABLE COMPOSITIONS OF MICAFUNGIN” (CADILA HEALTHCARE LIMITED, priority 2017, published 2019) are described below.

A short description of this series: Inventors' finding on stability of micafungin in liquid state. In kind it is physicochemical.

The structures appear in SMILES notation. Starred links: 1 amine or outer side, 2 acyl side, 3 side chain; linkers in the order of their positions; H or OH if unused. Positions of bridges follow the written chain, without caps; N, C: chain ends. Non-standard residues stand in square brackets, D forms with d. Residues, ends and D or L forms follow the SMILES beside them. ξ: configuration not given here. *: point of attachment. hTyr(3S-OH,4S-OH,3'-OSO3H) = N[C@H](C(=O)O)[C@H](O)[C@@H](O)c1ccc(O)c(OS(=O)(=O)O)c1; Orn(4R-OH,5R-OH) = O=C([C@H](C[C@@H](O)[C@@H](O)N[*:3])N[*:1])[*:2]; Pro(3S-OH,4S-Me) = C[C@H]1CN[C@H](C(=O)O)[C@H]1O; X1 = CCCCCOc1ccc(-c2cc(-c3ccc(C(=O)*)cc3)no2)cc1; Gln(3R-OH) = NC(=O)C[C@@H](O)[C@H](N)C(=O)O; Hyp = O=C(O)[C@@H]1C[C@@H](O)CN1; ξThr(3R) = C[C@@H](O)C(N)C(=O)O

As to `CCCCCOc1ccc(-c2cc(-c3ccc(C(=O)N[C@H]4C[C@@H](O)[C@@H](O)NC(=O)[C@@H]5[C@@H](O)[C@@H](C)CN5C(=O)[C@H]([C@H](O)CC(N)=O)NC(=O)[C@H]([C@H](O)[C@@H](O)c5ccc(O)c(OS(=O)(=O)O)c5)NC(=O)[C@@H]5C[C@@H](O)CN5C(=O)C([C@@H](C)O)NC4=O)cc3)no2)cc1` (stereo partly drawn) [micafungin, Micafungin] (X1-[Orn(4R-OH,5R-OH)][ξThr(3R)][Hyp][hTyr(3S-OH,4S-OH,3'-OSO3H)][Gln(3R-OH)][Pro(3S-OH,4S-Me)]; lactam 1-C), the “Stability in liquid state” value is “heat sensitive and shows temperature dependant degradation in liquid state”.
